Experimental data: patent US8680159B2, “Bradykinin 1 receptor modulating compounds” (Gruenenthal GmbH, priority 2010, dated 2014)

What was measured:
[1] = biological target: T1, human B1R receptor (CHO K1 cells stably transfected with the human B1R gene) (Homo sapiens, UniProt P46663); experiment: Functional study on the bradykinin receptor 1 (B1R), Ca2+ fluorescence (Fluo-4) FLIPR/Novostar assay, hB1R cells; format: cell-based; conditions: CHO-K1, read-out: % inhibition (human B1R) at 10 μM
T1 construct: expressed in transfected cells; host or cells: CHO K1 cells (Chinese hamster ovary), stably transfected
T1 sequence (P46663 1-353): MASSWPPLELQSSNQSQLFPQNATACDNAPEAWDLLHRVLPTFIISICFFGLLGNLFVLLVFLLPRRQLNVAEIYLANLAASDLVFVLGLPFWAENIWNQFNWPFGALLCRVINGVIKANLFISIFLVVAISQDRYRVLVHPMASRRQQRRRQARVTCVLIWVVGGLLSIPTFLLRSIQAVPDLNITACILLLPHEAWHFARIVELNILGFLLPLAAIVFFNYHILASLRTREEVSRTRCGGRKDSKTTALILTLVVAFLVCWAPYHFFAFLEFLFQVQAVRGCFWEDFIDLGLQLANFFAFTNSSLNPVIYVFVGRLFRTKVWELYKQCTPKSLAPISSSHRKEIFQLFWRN
Outline: (§1)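 Stably transfected CHO K1 cells carrying human or rat B1R were Fluo-4 loaded and Ca2+ fluorescence read by FLIPR or Novostar. Compounds were added first at 10 μM for % activation, then the EC80 agonist was applied after 6-20 min (human: Lys-Des-Arg9-bradykinin; rat: Des-Arg9-bradykinin). % inhibition is relative to maximum achievable inhibition, and IC50 comes from concentration series.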

[2] = biological target: T2, B1R receptor of the rat (CHO K1 cells stably transfected with the B1R gene of the rat) (Rattus norvegicus, UniProt P97583); experiment: Functional study on the bradykinin receptor 1 (B1R), Ca2+ fluorescence (Fluo-4) FLIPR/Novostar assay, rB1R cells; format: cell-based; conditions: CHO-K1, 10 μM, read-out: % inhibition (rat B1R) at 10 μM
T2 construct: expressed in transfected cells; host or cells: CHO K1 cells (Chinese hamster ovary), stably transfected
T2 sequence (P97583 1-337): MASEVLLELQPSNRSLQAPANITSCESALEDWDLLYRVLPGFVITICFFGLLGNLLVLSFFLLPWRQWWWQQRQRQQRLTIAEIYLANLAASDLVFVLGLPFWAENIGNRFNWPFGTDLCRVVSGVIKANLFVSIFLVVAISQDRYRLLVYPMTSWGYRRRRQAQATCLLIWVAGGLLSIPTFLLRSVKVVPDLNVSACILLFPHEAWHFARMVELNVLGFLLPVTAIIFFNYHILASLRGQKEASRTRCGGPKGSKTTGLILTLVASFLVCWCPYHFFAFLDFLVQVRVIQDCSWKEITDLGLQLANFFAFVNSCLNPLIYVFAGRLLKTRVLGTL
Outline: as §1

Compound | inhibition at 10 µM [1] | inhibition at 10 µM [2]
CN1CCN([C@@H]2CCC[C@H](N(C)C(=O)c3ccc4c(c3)CC[C@H]4N3Cc4cccc(Cl)c4C3=O)C2)CC1 [Example H-111, (1R)-1-(4-Chloro-3-oxo-1,2-dihydro-isoindol-2-yl)-N-methyl-N-[(1S,3R)-3-(4-methyl-piperazin-1-yl)-cyclohexyl]-2,3-dihydro-1H-indene-5-carboxylic acid amide] | 65% | 10%
CC(C)CC(=O)N(C(C)C)[C@@H]1CCc2ccc(C(=O)N(C)C3CCN(c4ccnc(N(C)C)c4)CC3)cc21 [Example H-119, (3R)-N-[1-(2-Dimethylamino-pyridin-4-yl)-pipendin-4-yl]-3-[isopropyl-(3-methyl-butanoyl)-amino]-N-methyl-2,3-dihydro-1H-indene-5-carboxylic acid amide] | 91% | 52%
CC(C)CC(=O)N(C(C)C)[C@@H]1CCc2ccc(C(=O)N(C)C3CCN(c4ccnc(N(C)C)n4)CC3)cc21 [Example H-120, (3R)-N-[1-(2-Dimethylamino-pyrimidin-4-yl)-pipendin-4-yl]-3-[isopropyl-(3-methyl-butanoyl)-amino]-N-methyl-2,3-dihydro-1H-indene-5-carboxylic acid amide] | 98% | 78%
COc1nc(C)cc(N2CCC(N(C)C(=O)c3ccc4c(c3)[C@H](NC(=O)c3ccccc3Cl)CC4)CC2)n1 [Example H-126, (3R)-3-[(2-Chloro-benzoyl)amino]-N-[1-(2-methoxy-6-methyl-pyrimidin-4-yl)-piperidin-4-yl]-N-methyl-2,3-dihydro-1H-indene-5-carboxylic acid amide] | 100% | 104%
Cc1cc(N2CCC(N(C)C(=O)c3ccc4c(c3)[C@H](NC(=O)c3ccccc3F)CC4)CC2)nc(C)n1 [Example H-128, (3R)-N-[1-(2,6-Dimethyl-pyrimidin-4-yl)-piperidin-4-yl]-3-[(2-fluoro-benzoyl)amino]-N-methyl-2,3-dihydro-1H-indene-5-carboxylic acid amide] | 99% | 100%
Cc1cc(N2CCC(N(C)C(=O)c3ccc4c(c3)[C@H](NC(=O)c3cccc(F)c3Cl)CC4)CC2)nc(C)n1 [Example H-129, (3R)-3-[(2-Chloro-3-fluoro-benzoyl)amino]-N-[1-(2,6-dimethyl-pyrimidin-4-yl)-piperidin-4-yl]-N-methyl-2,3-dihydro-1H-indene-5-carboxylic acid amide] | 100% | 98%
Cc1cc(N2CCC(N(C)C(=O)c3ccc4c(c3)[C@H](N3Cc5cccc(Cl)c5C3=O)CC4)CC2)nc(C)n1 [Example H-130, (3R)-3-(4-Chloro-3-oxo-1,2-dihydro-isoindol-2-yl)-N-[1-(2,6-dimethyl-pyrimidin-4-yl)-piperidin-4-yl]-N-methyl-2,3-dihydro-1H-indene-5-carboxylic acid amide] | 99% | 101%
COc1c(C)cnc(CN2CCC(N(C)C(=O)c3ccc4c(c3)[C@H](NC(=O)c3ccccc3Cl)CC4)CC2)c1C [Example H-131, (3R)-3-[(2-Chloro-benzoyl)amino]-N-[1-[(4-methoxy-3,5-dimethyl-pyridin-2-yl)-methyl]-piperidin-4-yl]-N-methyl-2,3-dihydro-1H-indene-5-carboxylic acid amide] | 55% | 77%
Cc1cc(N2CCC(N(C)C(=O)c3ccc4c(c3)[C@H](NC(=O)c3ccccc3C(F)(F)F)CC4)CC2)nc(C)n1 [Example H-132, (3R)-N-[1-(2,6-Dimethyl-pyrimidin-4-yl)-piperidin-4-yl]-N-methyl-3-[[2-(trifluoromethyl)-benzoyl]amino]-2,3-dihydro-1H-indene-5-carboxylic acid amide] | 99% | 99%

More lines, now with the values ahead:

inhibition at 10 µM [1] | inhibition at 10 µM [2] | Compound
99% | 99% | COc1cc(N2CCC(N(C)C(=O)c3ccc4c(c3)[C@H](NC(=O)c3ccccc3Cl)CC4)CC2)ccn1 [Example H-112, (3R)-3-[(2-Chloro-benzoyl)amino]-N-[1-(2-methoxy-pyridin-4-yl)-piperidin-4-yl]-N-methyl-2,3-dihydro-1H-indene-5-carboxylic acid amide]
98% | 100% | CN(C)c1ccc(N2CCC(N(C)C(=O)c3ccc4c(c3)[C@H](NC(=O)c3ccccc3Cl)CC4)CC2)cn1 [Example H-113, (3R)-3-[(2-Chloro-benzoyl)amino]-N-[1-(6-dimethylamino-pyridin-3-yl)-piperidin-4-yl]-N-methyl-2,3-dihydro-1H-indene-5-carboxylic acid amide]
38% | 96% | CN(C(=O)c1ccc2c(c1)[C@H](NC(=O)c1ccccc1Cl)CC2)C1CCC(Oc2ccncc2)CC1 (stereo partly drawn) [Example H-114, (3R)-3-[(2-Chloro-benzoyl)amino]-N-methyl-N-(4-pyridin-4-yloxy-cyclohexyl)-2,3-dihydro-1H-indene-5-carboxylic acid amide]
13% | 63% | CN(C(=O)c1ccc2c(c1)[C@H](NC(=O)c1ccccc1Cl)CC2)C1CCCN(c2ccncc2)C1 (stereo partly drawn) [Example H-115, (3R)-3-[(2-Chloro-benzoyl)amino]-N-methyl-N-(1-pyridin-4-yl-piperidin-3-yl)-2,3-dihydro-1H-indene-5-carboxylic acid amide]
99% | 103% | CN(C(=O)c1ccc2c(c1)[C@H](NC(=O)c1ccccc1Cl)CC2)C1CCCN(c2ccncc2)CC1 (stereo partly drawn) [Example H-116, (3R)-3-[(2-Chloro-benzoyl)amino]-N-methyl-N-(1-pyridin-4-yl-azepan-4-yl)-2,3-dihydro-1H-indene-5-carboxylic acid amide]
99% | 105% | CN(C(=O)c1ccc2c(c1)[C@H](NC(=O)c1ccccc1Cl)CC2)C1CCN(c2ccncc2F)CC1 [Example H-117, (3R)-3-[(2-Chloro-benzoyl)amino]-N-[1-(3-fluoro-pyridin-4-yl)-piperidin-4-yl]-N-methyl-2,3-dihydro-1H-indene-5-carboxylic acid amide]
100% | 104% | CN(C)c1nccc(N2CCC(N(C)C(=O)c3ccc4c(c3)[C@H](NC(=O)c3ccccc3Cl)CC4)CC2)n1 [Example H-118, (3R)-3-[(2-Chloro-benzoyl)amino]-N-[1-(2-dimethylamino-pyrimidin-4-yl)-piperidin-4-yl]-N-methyl-2,3-dihydro-1H-indene-5-carboxylic acid amide]
100% | 103% | Cc1nccc(N2CCC(N(C)C(=O)c3ccc4c(c3)[C@H](NC(=O)c3ccccc3Cl)CC4)CC2)n1 [Example H-122, (3R)-3-[(2-Chloro-benzoyl)amino]-N-methyl-N-[1-(2-methyl-pyrimidin-4-yl)-piperidin-4-yl]-2,3-dihydro-1H-indene-5-carboxylic acid amide]
97% | 107% | CN(C(=O)c1ccc2c(c1)[C@H](NC(=O)c1ccccc1Cl)CC2)C1CCN(c2ccnc(C#N)c2)CC1 [Example H-123, (3R)-3-[(2-Chloro-benzoyl)amino]-N-[1-(2-cyano-pyridin-4-yl)-piperidin-4-yl]-N-methyl-2,3-dihydro-1H-indene-5-carboxylic acid amide]
100% | 108% | CN(C(=O)c1ccc2c(c1)[C@H](NC(=O)c1ccccc1Cl)CC2)C1CCN(c2ccnc(N3CCCC3)c2)CC1 [Example H-124, (3R)-3-[(2-Chloro-benzoyl)amino]-N-methyl-N-[1-(2-pyrrolidin-1-yl-pyridin-4-yl)-piperidin-4-yl]-2,3-dihydro-1H-indene-5-carboxylic acid amide]
70% | 104% | Cc1nsc(N2CCC(N(C)C(=O)c3ccc4c(c3)[C@H](NC(=O)c3ccccc3Cl)CC4)CC2)n1 [Example H-125, (3R)-3-[(2-Chloro-benzoyl)amino]-N-methyl-N-[1-(3-methyl-[1,2,4]thiadiazol-5-yl)-piperidin-4-yl]-2,3-dihydro-1H-indene-5-carboxylic acid amide]
96% | 91% | CN(C(=O)c1ccc2c(c1)[C@H](NC(=O)c1ccccc1Cl)CC2)C1CCN(c2ncnc3ccccc23)CC1 [Example H-127, (3R)-3-[(2-Chloro-benzoyl)amino]-N-methyl-N-(1-quinazolin-4-yl-piperidin-4-yl)-2,3-dihydro-1H-indene-5-carboxylic acid amide]
